Experimental findings from PubChem BioAssay (NCI) are described below.

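Each compound was tested at five concentrations against cells in 96-well plates for 48 hours. TGI is the concentration that stops growth completely.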

Common to all, as to assay: NCI anticancer screen, dose series, 48 h
The subject of test [1] is HCT-116 colon.
Test [2] relates to HCT-15 colon.
For test [3], the system named is COLO 205 colon.
Test [4] concerns A498 renal.
For test [5], the system named is CAKI-1 renal.
The test system of test [6] is NCI-H23 lung.
Test [7] has as its system M14 melanoma.
The subject of test [8] is MDA-N.
Test [9] has as its system HT29 colon.
Test [10] has as its system TK-10 renal.

`CN(C)CC(O)c1ccc(Cl)c2ccccc12` (stereo unspecified): the TGI is > 100 µM in test [1]; > 100 µM in test [2]; 49.2 µM in test [3]; 45.9 µM in test [4]; > 96.6 µM in test [5]; > 100 µM in test [6]. The TGI in test [7] is 33 µM; in test [8], > 63.8 µM; in [9] it was > 100 µM; in test [10], > 94 µM.
Take `COC1CC(N)(c2ccccc2)C(O)C(C)O1` (stereo unspecified): the TGI in test [1], in [2], in test [3], in test [4], in [5] and in test [6] was > 100 µM in each case. In addition, the TGI in test [7] and in test [8] was > 100 µM throughout.
Take `CCc1n[nH]c(=O)n1CCCCCCCCCCCCn1c(CC)n[nH]c1=O`: the TGI is > 100 µM in test [1]; > 100 µM in test [2]; 75.5 µM in test [3]; > 100 µM in test [4]; > 100 µM in test [5]; 94.4 µM in test [6]. Moreover, the TGI was 95.8 µM in [7], > 100 µM in test [8], > 100 µM in test [9] and > 100 µM in test [10].
Consider `Cc1ccc(Nc2nc3[nH]ccc3c(=O)[nH]2)cc1`, for which the TGI in test [1], in test [2], in [3], in test [4], in test [5] and in test [6] was > 100 µM each time. Moreover, the TGI in [7], in test [8], in test [9] and in [10] was > 100 µM throughout.
Consider `c1ccc(/C(=N/Nc2nc3ccccc3s2)C2CCCCC2)nc1`, for which the TGI was 14.8 µM in test [1]; 15.8 µM in test [2]; 13.1 µM in [3]; 31.4 µM in [4]; 21.6 µM in test [5]; 21.8 µM in [6]. Also, the TGI in test [7] stood at 27.7 µM; in test [8] it was 34.2 µM; in test [9], 16.1 µM; in [10], 14.5 µM.
In the case of `OC1[C@@H]2[C@@H](O)CCCN2C[C@@H](O)[C@H]1O` (stereo partly specified), the TGI in [1], in test [2], in test [3], in test [4], in [5] and in test [6] was > 100 µM throughout. Further, the TGI in test [7], in [8], in test [9] and in test [10] was > 100 µM each time.
For `[N-]=[N+]=Nc1c(Cc2ccccc2)c(Cl)nc2ccccc12`, the TGI in test [1] is 53 µM; in [2] it was > 100 µM; in [3], 35.2 µM; in test [4], 65.3 µM; in [5], 92.3 µM; in [6], > 100 µM. In addition, the TGI in test [7] is 49.4 µM; in test [8], > 100 µM; in test [9], > 100 µM; in [10], 53 µM.
With `COc1cc(C2c3c(ccc4ccccc34)C(=O)C3CCC(=O)N32)cc(OC)c1OC` (stereo unspecified), the TGI in [1], in test [2], in test [3], in test [4], in test [5] and in [6] was > 50 µM throughout. The TGI in test [7], in test [8] and in test [9] was > 50 µM in each case.
As to `COc1cccc(N2C(=O)CSC2c2cccc(Oc3ccccc3)c2)c1` (stereo unspecified), the TGI in test [1] is 12 µM; in test [2], 76.9 µM; in test [3], 10.2 µM; in test [4], 9.33 µM; in test [5] it was 14.3 µM; in test [6], > 100 µM. Besides, the TGI in test [7] turned out to be 51 µM; in test [8] it was 5.53 µM; in [9] it was 37.5 µM; in test [10], 25.3 µM.
`O=C(Nc1ccccc1)N(C1=NCC(CI)S1)c1ccc(F)c(F)c1` (stereo unspecified): the TGI in [1], in test [2], in [3], in test [4], in test [5] and in [6] was > 100 µM throughout. For the same compound, the TGI in test [8] was 96.3 µM; in [9], > 100 µM; in [10], > 100 µM.
With `Cn1c(=O)c2c(nc3n(CC(O)CCl)c(=O)ccn23)n(C)c1=O` (stereo unspecified), the TGI in test [1] was > 100 µM; in [2] it was > 100 µM; in test [3] it was > 100 µM; in test [4], > 100 µM; in [5], 66.2 µM; in test [6] it was > 100 µM. For the same compound, the TGI in test [7], in test [8], in test [9] and in [10] was > 100 µM each time.
For the compound `CCOC(=O)c1c(C)n(Cc2ccc(Cl)cc2Cl)c2c1cc(O)c1[nH]c3c(c12)CCCC3`, the TGI in test [1] is > 100 µM; in [2], > 100 µM; in [3], > 100 µM; in test [4], 38.6 µM; in test [5], 56.4 µM; in test [6] it was 77.6 µM. Further, the TGI in test [7] came out at 86.3 µM; in test [8], 45.6 µM; in test [9] it was 68.2 µM; in test [10], 45.4 µM.
Turning to `O=C(Nc1ccccc1F)c1cc2ccc(O)cc2oc1=Nc1cccc(F)c1`, the TGI in test [1] is 24.8 µM; in test [2] it was 24.4 µM; in test [3] it was 77.3 µM; in [4], 43.8 µM; in test [5] it was 40.6 µM; in test [6] it was 5.36 µM. Moreover, the figures for the TGI in test [7], in test [8] and in [9] were 38.6 µM, 43.3 µM and > 100 µM, respectively.
For `O=C(O)CC(Cc1ccccc1Cl)C(=O)O` (stereo unspecified), the TGI in [1], in test [2], in [3], in test [4], in test [5] and in test [6] was > 100 µM throughout. In addition, the TGI in test [7], in test [8], in test [9] and in test [10] was > 100 µM throughout.
Consider `O=c1[nH]cc(NCCCl)c(=O)[nH]1`, for which the TGI in [1], in test [2], in test [3], in [4], in test [5] and in [6] was > 100 µM each time. For the same compound, the TGI in test [7], in [8], in test [9] and in [10] was > 100 µM in each case.
`CC(=O)NC1C(OCc2ccccc2)OC(CO)C(O)C1OCC(=O)N1CCCC1C(=O)N[C@@H](CCC(=O)NCCCCNc1c2ccccc2nc2cccc([N+](=O)[O-])c12)C(N)=O` (stereo partly specified): the TGI in test [1] was 64.6 µM; in test [2], > 100 µM; in test [3], 46.4 µM; in test [4] it was > 100 µM; in [5], > 100 µM; in test [6], 40.8 µM. For the same compound, the TGI is 40.5 µM in test [7], 30.6 µM in test [8], 50.2 µM in test [9] and > 100 µM in test [10].
As for `O=c1[nH]c(Nc2ccccc2)nc2c1ncn2CC(O)CSCCO` (stereo unspecified), the TGI in test [1], in test [2], in test [3], in test [4], in test [5] and in [6] was > 100 µM throughout. In addition, the TGI in test [7], in test [8], in [9] and in test [10] was > 100 µM throughout.
`CSc1ncc2c(n1)C(C#N)C1Sc3ccccc3N1C2=O` (stereo unspecified): the TGI in test [1], in test [2], in [3], in [4], in [5] and in test [6] was > 100 µM throughout. The TGI in [7], in test [8], in test [9] and in test [10] was > 100 µM throughout.
Turning to `COC(=O)Cc1cc(O)c2c(c1O)C(=O)c1ccccc1C2=O`, the TGI is > 100 µM in [1]; > 100 µM in test [2]; > 100 µM in [3]; > 87.1 µM in test [4]; > 100 µM in test [5]; > 100 µM in [6]. Also, the TGI in test [7] was > 100 µM; in test [8], > 100 µM; in test [9], > 46.4 µM; in test [10], > 79.9 µM.
For the compound `COc1ccc(N2CC(=O)N(C(=O)COc3ccc(OCC(=O)N4C(=O)CN(c5ccc(OC)cc5)C4=S)cc3)C2=S)cc1`, the TGI is 63.3 µM in [1]; > 100 µM in test [2]; > 100 µM in test [3]; > 100 µM in test [4]; > 100 µM in [5]; > 100 µM in test [6]. The TGI in [7], in test [8], in test [9] and in test [10] was > 100 µM throughout.
For `CCO/C(=N/S(=O)(=O)C(F)(F)F)N(C(C)C)C(C)C`, the TGI in [1], in [2], in test [3], in [4], in test [5] and in test [6] was > 100 µM in each case. Also, the TGI in test [7], in test [8], in test [9] and in test [10] was > 100 µM each time.
`Fc1ccc(C(OCCN2CCN(CCCc3ccccc3)CC2)c2ccc(F)cc2)cc1`: the TGI in test [2] is 13.4 µM; in test [3], 10.1 µM; in test [4], 19.7 µM; in test [5] it was 13.5 µM; in test [6], 15.3 µM; in test [7] it was 11.3 µM. The TGI in test [8] was determined as 14.3 µM; in test [9] it was 12.3 µM; in [10], 18.7 µM.
On to `CC1CC[C@@]2(OC1)OC1C[C@H]3[C@@H]4CC=C5CC(OC6OC(CO)C(OC7OC(CO)C(O)C(OC8OCC(O)C(O)C8O)C7OC7OC(CO)C(OC8OC(C)C(OC9OC(C)C(O)C(O)C9O)C(O)C8O)C(O)C7O)C(O)C6O)CCC5(C)[C@H]4CCC3(C)C1[C@@H]2C` (stereo partly specified), for which the TGI came to 15.3 µM in test [1]; 18.9 µM in test [2]; 15.6 µM in test [3]; 8.7 µM in [4]; 15.3 µM in test [5]; 16.7 µM in [6]. For the same compound, the TGI in test [7] was found to be 10.1 µM; in test [8], 16.2 µM; in [9], 15.4 µM; in test [10] it was 15.8 µM.
`COc1ccc([C@H]2[C@H]3COC(=O)[C@H]3C(C#N)=C3Sc4ccccc4N32)cc1`: the TGI in test [1] was > 100 µM; in test [2] it was > 87.4 µM; in test [3] it was 34.5 µM; in test [4] it was 98.3 µM; in test [5], > 62.3 µM; in [6], 78.8 µM. Moreover, the TGI is > 100 µM in test [7], > 74.4 µM in test [8], 37.7 µM in test [9] and > 100 µM in test [10].
Turning to `S=C1c2ccc(Cl)cc2-n2cnnc2C2CSCN12` (stereo unspecified), the TGI in test [1], in test [2], in [3], in test [4], in test [5] and in test [7] was > 100 µM in each case. Moreover, the TGI in test [8], in test [9] and in test [10] was > 100 µM in each case.
For the compound `N#CCCN(CCC#N)c1ccc(/C=C2\N=C(c3ccccc3)N(c3ccc(F)cc3)C2=O)cc1`, the TGI in [1], in test [2], in test [3], in test [4], in test [5] and in test [7] was > 100 µM each time. Also, the TGI in test [8], in test [9] and in [10] was > 100 µM throughout.
Regarding `Cc1ccc2c(c1)-c1nc(N)c(C#N)c(-c3ccc(Cl)cc3)c1CCS2(=O)=O`, the TGI in test [1] was > 100 µM; in [2] it was > 100 µM; in [3], 65.6 µM; in test [4], 92.1 µM; in test [5], > 100 µM; in test [6], > 100 µM. Moreover, the TGI in test [8] was > 100 µM; in [9], 63.2 µM; in [10], > 100 µM.
